Data set [1] has as its target T1, mouse mu opioid receptor (Mus musculus, UniProt P42866).
T1 construct: expressed in transfected cells; host or cells: CHO (mMOR-CHO), membrane homogenates
The data set is described as follows: Competition radioligand binding assay ([3H]naloxone, mMOR-CHO membranes). Conditions: 1.4 nM [3H]naloxone, read-out: [3H]NLX Binding Ki. The method, then:
In vitro binding assays were performed using monocloned mouse mu opioid receptor expressing Chinese hamster ovary (CHO) cells (mMOR-CHO). mMOR-CHO cell culture and membrane homogenate preparation were performed as previously described. All assays were duplicated and repeated at least three times.
Competition binding assays were performed as previously described. […] Bound radioactive ligand was isolated by filtration through GF/B glass fiber filters and rinsed three times with ice-cold wash buffer (50 mM Tris-HCl, pH 7.2). Bound radioactivity was determined via liquid scintillation ounting. […] The IC50 values were determined by nonlinear regression analysis using GraphPad Prism 9 (GraphPad Software, San Diego, CA, USA) and converted to Ki values using the Cheng–Prusoff equation.

Data set [2] concerns the target T1, mouse mu opioid receptor. The data set is described as follows: [35S]GTPγS functional assay (mMOR-CHO membranes). Format: biochemical. In general terms: GTPγS resists hydrolysis and so accumulates on activated G proteins.
Data set [3] addresses T2, human δ-opioid receptor (OPRD1) (Homo sapiens, UniProt P41143). The data set is described as follows: Forskolin-induced cAMP accumulation assay, DOR agonist mode. (In general: Changes in cAMP serve as a functional read-out for many G protein-coupled receptors.)
For data set [4], the system named is squirrel monkeys. The data set is described as follows: Respiratory depression: ventilatory response to hypercapnia (5% CO2 in air). Format: in vivo, squirrel monkeys (Saimiri sciureus). Conditions: ratio of minute volumes in 5% CO2 and room air, cumulative dosing. The procedure: Ventilation measures were assessed as described previously. Briefly, squirrel monkeys were acclimated to a customized acrylic chamber (10″ d × 10″ w × 10″ h) that served as a whole-body plethysmograph (EMKA Technologies, Montreal, PQ, Canada). Gas (either air or a 5% CO2 in air mixture) was introduced to and extracted from the chamber at a constant flow rate of 5 L/min. Experimental sessions consisted of 4–6 consecutive 30 min cycles, each comprising a 20 min exposure to air followed by a 10 min exposure to 5% CO2. Drug effects were determined using cumulative dosing procedures, and injections were administered following each exposure to 5% CO2. Respiratory rate and tidal volume (mL/breath) were recorded over 1 min periods and were multiplied to provide minute volumes. Data from the last three minutes of each exposure to air or CO2 were averaged and used for analysis of drug effects on ventilation.
(§1) All statistical analyses and graphic representations were completed with GraphPad Prism version 9.3.0 (GraphPad Software, San Diego, CA, USA) using log transformed values of doses. Group means ± SEM tail withdrawal latencies (in sec) and minute volume ratios are plotted as a function of drug dose. Data were analyzed using One-way ANOVA with significance set at p < 0.05, followed by Dunnett’s multiple comparison test.

Data set [5] concerns squirrel monkeys. The data set is described as follows: Antinociception: warm-water tail-withdrawal. Format: in vivo, squirrel monkeys (Saimiri sciureus). The note with it: 52 °C water, cumulative dosing. The procedure:
Male squirrel monkeys (Saimiri sciureus) were housed in a climate-controlled vivarium with a 12 h light/dark cycle (7 AM–7 PM) in the McLean Hospital Animal Care Facility (licensed by the U.S. Department of Agriculture and compliant with guidelines provided by the Committee on Care and Use of Laboratory Animals of the Institute of Laboratory Animals Resources, Commission on Life Sciences, National Research Council; 2011). Tail withdrawal latencies were assessed as described previously. Briefly, monkeys were seated in customized Plexiglas chairs that allowed their tails to hang freely. Tail withdrawal latencies were measured by immersing the subject’s tail in water held at 35 or 52 °C (temperatures were presented in a randomized order during successive test components). After obtaining a baseline tail withdrawal latency, complete dose response curves were generated in each subject using standard cumulative dosing procedures. Briefly, every 15 min after an injection tail-withdrawal latencies at each temperature were redetermined and subjects were injected with the next dose, such that the total (cumulative) dose was increased by ½ log10 units in each successive cycle. This procedure was repeated until either (a) the tail-withdrawal latency from 52 °C water reached the maximum allowable latency (10 sec), or (b) tail-withdrawal latency no longer increased with increases in dose of the test drug.
as §1

Data set [6] has as its target T2, human δ-opioid receptor (OPRD1). The data set is described as follows: Forskolin-induced cAMP accumulation assay, DOR antagonist mode.
Data set [7] has as its target T3, human κ-opioid receptor (OPRK1) (Homo sapiens, UniProt P41145). Conditions: versus EC90 of U50488H; normalized to nor-BNI.
For data set [8], the target named is T3, human κ-opioid receptor (OPRK1). The data set is described as follows: cell-based.
The target is the same in data set [9]. The data set is described as follows: cell-based. The source holds these as a separate data set.

The Ki is a measure of affinity in units of concentration, obtained from inhibition or displacement. One may read the EC50 as the concentration giving half of the maximal effect. Usually Emax stands for the maximal effect, on the per cent scale that the assay sets. The term IC50 denotes the midpoint of a concentration-inhibition curve.

“Also recorded” adds a separate entry of the source.

T3 sequence (P41145 whole entry): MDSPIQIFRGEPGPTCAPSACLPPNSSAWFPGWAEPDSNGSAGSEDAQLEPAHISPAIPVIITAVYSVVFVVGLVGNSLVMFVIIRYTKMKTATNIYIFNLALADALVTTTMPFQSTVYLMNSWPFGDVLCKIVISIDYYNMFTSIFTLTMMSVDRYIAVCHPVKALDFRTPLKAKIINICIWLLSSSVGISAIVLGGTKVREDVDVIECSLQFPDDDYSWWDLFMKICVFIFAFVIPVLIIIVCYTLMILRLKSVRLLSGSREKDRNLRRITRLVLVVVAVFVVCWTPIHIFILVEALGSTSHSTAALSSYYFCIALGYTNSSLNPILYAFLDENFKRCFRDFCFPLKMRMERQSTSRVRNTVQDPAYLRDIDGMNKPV
T2 sequence (P41143 whole entry): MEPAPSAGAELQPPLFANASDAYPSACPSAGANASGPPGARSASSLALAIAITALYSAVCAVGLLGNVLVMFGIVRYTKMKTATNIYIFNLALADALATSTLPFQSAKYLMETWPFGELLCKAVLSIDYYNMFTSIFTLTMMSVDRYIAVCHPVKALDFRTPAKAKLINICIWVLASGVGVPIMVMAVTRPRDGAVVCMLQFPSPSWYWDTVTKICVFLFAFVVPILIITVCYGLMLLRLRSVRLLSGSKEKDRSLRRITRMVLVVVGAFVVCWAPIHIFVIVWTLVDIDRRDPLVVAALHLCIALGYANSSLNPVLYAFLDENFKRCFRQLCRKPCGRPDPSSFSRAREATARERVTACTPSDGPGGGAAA
T1 sequence (P42866 whole entry): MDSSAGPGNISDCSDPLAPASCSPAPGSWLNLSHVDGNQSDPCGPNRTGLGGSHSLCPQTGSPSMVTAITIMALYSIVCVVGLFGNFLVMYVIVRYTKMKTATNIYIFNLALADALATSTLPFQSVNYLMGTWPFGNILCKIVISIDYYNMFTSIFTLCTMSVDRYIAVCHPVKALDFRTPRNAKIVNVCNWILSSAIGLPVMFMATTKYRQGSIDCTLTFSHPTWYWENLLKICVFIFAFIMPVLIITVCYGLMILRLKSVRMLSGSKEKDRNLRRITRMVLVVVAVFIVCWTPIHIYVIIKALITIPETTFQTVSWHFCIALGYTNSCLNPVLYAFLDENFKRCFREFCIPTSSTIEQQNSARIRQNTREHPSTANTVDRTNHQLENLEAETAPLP

As to `C/C=C\[C@H]1[C@H]2CCC[C@]1(c1cccc(O)c1)CCN2CCc1ccccc1` [Compound 17, 3-((1R,5S,9R)-2-Phenethyl-9-((Z)-prop-1-en-1-yl)-2-azabicyclo [3.3.1]nonan-5-yl)phenol], the inhibition constant (Ki) at mouse mu opioid receptor [1] was 0.00183 ± 0.00024 µM. Further, the EC50 is 0.00964 ± 0.0017 µM at mouse mu opioid receptor [2] (mMOR-CHO membranes, read-out: GTPgS EC50); above 10 µM in data set [3]; above 10 µM in data set [8]. Further, the maximal effect (Emax) on mouse mu opioid receptor [2] (read-out: GTPgS % Emax of (DAMGO)) is 18 ± 1.45%. Further, the “Effect on ventilatory ratio (respiratory depression)” value in the data set on squirrel monkeys [4] is on record as “without significantly altering ventilation; also recorded: limited effects on ventilatory ratio”. Besides, in the data set with squirrel monkeys [5], the “Effect on tail withdrawal latency (antinociception)” value is “increased tail withdrawal latency; also recorded: consistent and significant antinociceptive effects”. The half-inhibitory concentration (IC50) came to 0.113 ± 0.0198 µM in [6] and 0.035 ± 0.0097 µM in data set [9]. The “DOR Antagonist %Imax ± SEM” value in [6] (versus EC50 of SNC80, normalized to naltrexone) amounted to 143.3 ± 11.9%. Besides, the “KOR Antagonist %Imax ± SEM” value in [7] was 111.6 ± 7.9%.

These data come from PMC9570967 (Molecules, 2022).
